Experimental data: patent publication US20050025839A1, “Formulation approach to enhance transporter-mediated drug uptake” (priority 2003, published 2005)

How the values were obtained:
hASBT = biological target: T1, hASBT (Homo sapiens, UniProt Q12908); test: Sodium-enhanced uptake into COS-hASBT cells (FIG. 1); type: cell-based; conditions: with vs without sodium
T1 construct: expressed in transfected cells; host or cells: COS cells (COS-hASBT)
T1 sequence (Q12908 1-348): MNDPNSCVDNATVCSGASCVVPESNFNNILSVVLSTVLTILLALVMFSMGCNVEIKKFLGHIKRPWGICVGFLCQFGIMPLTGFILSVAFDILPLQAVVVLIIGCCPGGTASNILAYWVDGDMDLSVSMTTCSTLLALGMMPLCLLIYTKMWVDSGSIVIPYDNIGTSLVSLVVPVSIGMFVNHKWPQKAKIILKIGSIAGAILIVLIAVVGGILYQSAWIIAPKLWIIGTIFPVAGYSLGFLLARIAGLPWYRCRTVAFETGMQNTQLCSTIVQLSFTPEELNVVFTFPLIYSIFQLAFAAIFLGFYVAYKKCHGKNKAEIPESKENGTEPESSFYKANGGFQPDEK
Source text: FIG. 1 illustrates how this invention provides for improved uptake of active agent, and specifically the impact of sodium on the uptake of an acyclovir prodrug that utilizes the hASBT transporter, which is a sodium-dependent transporter. […] COS-hASBT cells express hASBT. Acyclovir valylchenodeoxycholate is a prodrug of acyclovir, where acyclovir valylchenodeoxycholate is a substrate for hASBT. Uptake from acyclovir valylchenodeoxycholate prodrug and uptake from acyclovir are shown as closed bar and open bar, respectively. […] Error bars represent SEM's.

[1] = prodrug vs acyclovir, refs (9,10); cited from earlier work

Structure (SMILES) | Effect of sodium on uptake into COS-hASBT cells (hASBT) | in vivo oral acyclovir bioavailability [1]
CC(C)[C@H](NC(=O)CC[C@@H](C)[C@H]1CC[C@H]2[C@@H]3[C@H](O)C[C@@H]4C[C@H](O)CC[C@]4(C)[C@H]3CC[C@]12C)C(=O)OCCOCn1cnc2c(=O)[nH]c(N)nc21 [acyclovir valylchenodeoxycholate] | enhanced by sodium | enhance in vivo oral acyclovir bioavailability
Nc1nc2c(ncn2COCCO)c(=O)[nH]1 [acyclovir, reference compound] | did not enhance | –
